The target in assay [1] is BRD4 (Homo sapiens, UniProt O60885). To be noted: BT-474 cells (HER2-positive), 24 hours treatment, various concentrations up to 1 μM, western blot. In general terms: In western blotting, separated proteins are transferred to a membrane and probed.
Assay [2] deals with BRD2, BRD3, and BRD4. To be noted: read-out: EC50, inhibitor of BRD2, BRD3, and BRD4; cited from earlier work.

In the case of `Cc1sc2c(c1C)C(c1ccc(Cl)cc1)=N[C@@H](CC(=O)Nc1ccc(OCCOCCNCCOCCNc3cccc4c3C(=O)N(C3CCC(=O)NC3=O)C4=O)cc1)c1nnc(C)n1-2` (stereo partly drawn) [Compound 5], the BRD4 protein degradation entry in assay [1] is on record as “as effective as ARV-825”.
As to `Cc1sc2c(c1C)C(c1ccc(Cl)cc1)=N[C@@H](CC(=O)Nc1ccc(OCCOCCN(CCOCCNc3cccc4c3C(=O)N(C3CCC(=O)NC3=O)C4=O)C(=O)OCc3ccc(NC(=O)[C@H](CCCNC(N)=O)NC(=O)[C@@H](NC(=O)CCCCCN4C(=O)C=CC4=O)C(C)C)cc3)cc1)c1nnc(C)n1-2` (stereo partly drawn) [Compound 7], the BRD4 protein degradation entry in assay [1] was “cannot degrade BRD4 protein”.
Turning to `Cc1sc2c(c1C)C(c1ccc(Cl)cc1)=N[C@@H](CC(=O)Nc1ccc(O)cc1)c1nnc(C)n1-2` [OTX015], the EC50 (commonly the concentration needed to bring the measured effect to its halfway point) in assay [2] was 10 to 19 nM.
